# Results reported in US4591605A, “Method and ingestible formulation for inhibiting the secretion of stomach acid” (Research Foundation of State University of New York, priority 1982, dated 1986).
# Tests used:
# [1] = tested on: histamine stimulated bullfrog gastric mucosa; test: H+ secretion by histamine-stimulated bullfrog gastric mucosa (chambered mucosa, titration); set-up: species or system bullfrogs (Rana catesbeiana); conditions: for activity at 500 µM: Aquarana catesbeiana, 0.5 mM drug in the secretory solution, histamine stimulated steady-state H+ secretory rate, mean ±SEM, read-out: Rate of H^+ transport (% of control); for reversibility of the inhibition of H^+ transport by elevation of secretory K^+: K+ substituted for Na+ of the secretory solution; for inhibitory effect relative to the other polyamine: spermine versus spermidine
# Description: This experiment was carried out with gastric mucosa from bullfrogs (Rana catesbeiana). […] The area of the mounted mucosae was 1.5 cm^2. The bathing solutions were bubbled continuously with […] -5% CO2.
# The normal nutrient soliution had the following composition (in mM): NaCl 87, KCl 4, CaCl2 2, MgCl2 1, KH2 PO4 1, NaHCO3 18, and glucose 11.
# All experiments were conducted under open-circuit conditions at room temperature. The mucosal solutions were collected at 15-minute intervals and placed in thoroughly washed plastic vials. The K^+ content of the secretory medium was determined by atomic absorption spectrophotometer (model 360 Perkin-Elmer). The H^+ secretion was quantitated by titration using 1 mM NaOH to pH 6.5 while gassing with 100% N2.
# The H^+ secretory rates are the steady-stage values before (None) and after addition of the drugs attained by the histamine stimulated mucosa. Values are mean ±SEM.
# [2] = tested on: gastric (H^+ +K^+)-ATPase; conditions: vesicles preequilibrated in 150 mM KCl with 0.5 mM compound for 48 hours
# Description: The gastric microsomal membranes were harvested. All procedures were carried out at 0°-4° C. Briefly, the fundic mucosa from the pig was desquamated and scraped to collect the oxyntic cell-enriched fractions. The mucosal scraping was homogenized gently in a medium consisting of 250 mM sucrose, 0.2 mM EDTA, and 0.2 mM Pipes buffer (pH 6.8) using a loose pestle homogenizer. The homogenate was centrifuged at 8000 g for 5 min. The process was repeated three times. All the supernatants were pooled together and layered over 40 ml of 37% sucrose in 84-ml capacity screw cap tubes and centrifuged at 100,000 g for 5 hours. The microsomal membrane bands appeared at the interface of soluble supernatant and 37% sucrose. The microsomal vesicle bands were collected, diluted with homogenizing medium, and centrifuged at 100,000 g for 90 min. The pellet was suspended in the homogenizing medium with a protein concentration of 0.5 mg/ml. The collected cellular vesicules were inverted, i.e., the interior of the vesicules originally faced the lumen side of the stomach. Vesicular accumulation of H^+ was measured at room temperature. The method uses the change in fluorescence intensity (quenching) of 9-amino-acridine or acridine orange which is proportional to the amount of dye taken up by the microsomes. The amount of dye taken up is a sensitive measure of intravesicular H^+ concentration. […]
Structure (SMILES),"inhibition of H^+ transport, added into the secretory solution ([1]; 0.25 mM in secretory solution (lumen side), inhibition increased with concentration)","rate of H^+ transport in K+-depleted mucosa ([1]; 1 mM together with 10 mM K+ in the secretory solution, within 30 min)","reversibility of inhibition by elevation of secretory K^+ in K+-depleted mucosa ([1]; 1 mM with 10 mM K+ in secretory solution, then K+ elevated)","effect on H^+ transport, added to nutrient solution ([1]; 0.5 and 1.0 mM, from the nutrient side)",activity at 500 µM [1] [%],reversibility of the inhibition of H^+ transport by elevation of secretory K^+ [1],inhibitory effect relative to the other polyamine [1],H^+ uptake by the vesicles [2],"inhibition of gastric H^+ transport, added into the nutrient solution ([1]; nutrient solution, concentration not given)","inhibition of gastric H^+ transport, added into the secretory solution ([1]; secretory solution, concentration not given)"
"NCCCNCCCCNCCCN [Spermine, spermine]",remarkable inhibition of H^+ transport,near zero,could be reversed,did not have any appreciable effect,28 ± 6,completely reversible,more potent than spermidine,totally obliterated,–,–
"NCCCCN [Putrescine, putrescine, reference compound]",–,–,–,–,95 ± 10,–,–,–,–,–
"NCCCCNCCCN [Spermidine, spermidine]",–,–,–,–,55 ± 2,could also be reversed,much lower than spermine,–,not into the nutrient solution,inhibits gastric H^+ transport
